According to ChEMBL document CHEMBL1147114, “Fluoroquinolone resistance in Haemophilus influenzae is associated with hypermutability” (2007):
In brackets after ≈: the same amount, converted by molar mass.

Assays:
Assay type in all cases: functional
[1] = tested on: Haemophilus influenzae; assay: Antimicrobial susceptibility against Haemophilus influenzae B1 isolate with GyrA Asp88Tyr and AcrR Leu31His mutation
[2] = tested on: Haemophilus influenzae; assay: Antimicrobial susceptibility against Haemophilus influenzae A4 isolate with GyrA Glu83Cys, ParC Ser84Arg and AcrR 97stop codon mutation
[3] = tested on: Haemophilus influenzae; assay: Antimicrobial susceptibility against Haemophilus influenzae D1 isolate with GyrA Ser84Tyr, ParC Glu88Lys and AcrR Leu31His, Ile121Val and Gln134Lys mutation
[4] = tested on: Haemophilus influenzae; assay: Antimicrobial susceptibility against Haemophilus influenzae D3 isolate with GyrA Ser84Tyr, ParC Glu88Lys and AcrR Leu31His, Ile121Val and Gln134Lys mutation
[5] = tested on: Haemophilus influenzae; assay: Antimicrobial susceptibility against Haemophilus influenzae C2 isolate with GyrA Asp88Asn, AcrR Leu31His and Arg34Glu mutation
[6] = tested on: Haemophilus influenzae; assay: Antimicrobial susceptibility against Haemophilus influenzae B isolate with AcrR Leu31His mutation
[7] = tested on: Haemophilus influenzae; assay: Antimicrobial susceptibility against Haemophilus influenzae B2 isolate with GyrA Asp88Tyr and AcrR Leu31His mutation
[8] = tested on: Haemophilus influenzae; assay: Antimicrobial susceptibility against Haemophilus influenzae A2 with GyrA Glu83Cys, ParC Ser84Arg and AcrR 97stop codon mutation
[9] = tested on: Haemophilus influenzae; assay: Antimicrobial susceptibility against Haemophilus influenzae D isolate with AcrR Leu31His, Ile121Val and Gln134Lys mutation
[10] = tested on: Haemophilus influenzae; assay: Antimicrobial susceptibility against Haemophilus influenzae C3 isolate with GyrA Asp88Asn, ParC Ser84Ile, AcrR Leu31His and Arg34Glu mutation
[11] = tested on: Haemophilus influenzae; assay: Antimicrobial susceptibility against Haemophilus influenzae A isolate with GyrA Glu83Cys and AcrR 97stop codon mutation
[12] = tested on: Haemophilus influenzae; assay: Antimicrobial susceptibility against Haemophilus influenzae C isolate with AcrR Leu31His and Arg34Glu mutation
[13] = tested on: Haemophilus influenzae; assay: Antimicrobial susceptibility against Haemophilus influenzae C1 isolate with GyrA Asp88Asn, AcrR Leu31His and Arg34Glu mutation
[14] = tested on: Haemophilus influenzae; assay: Antimicrobial susceptibility against Haemophilus influenzae A3 isolate with GyrA Glu83Cys, ParC Ser84Arg and AcrR 97stop codon mutation
[15] = tested on: Haemophilus influenzae; assay: Antimicrobial susceptibility against Haemophilus influenzae A1 isolate with GyrA Glu83Cys, ParC Ser84Arg and AcrR 97stop codon mutation
[16] = tested on: Haemophilus influenzae; assay: Antimicrobial susceptibility against Haemophilus influenzae D2 isolate with GyrA Ser84Tyr, ParC Glu88Lys and AcrR Leu31His, Ile121Val and Gln134Lys mutation
[17] = tested on: Haemophilus influenzae; assay: Antimicrobial susceptibility against Haemophilus influenzae D4 isolate with GyrA Ser84Tyr, ParC Glu88Lys and AcrR Leu31His, Ile121Val and Gln134Lys mutation

| Structure (SMILES) | MIC [1] [µg/mL] | MIC [2] [µg/mL] | MIC [3] [µg/mL] | MIC [4] [µg/mL] | MIC [5] [µg/mL] | MIC [6] [µg/mL] | MIC [7] [µg/mL] | MIC [8] [µg/mL] | MIC [9] [µg/mL] | MIC [10] [µg/mL] | MIC [11] [µg/mL] | MIC [12] [µg/mL] | MIC [13] [µg/mL] | MIC [14] [µg/mL] | MIC [15] [µg/mL] | MIC [16] [µg/mL] | MIC [17] [µg/mL] |
| --- | --- | --- | --- | --- | --- | --- | --- | --- | --- | --- | --- | --- | --- | --- | --- | --- | --- |
| O=C(O)c1cn(C2CC2)c2cc(N3CCNCC3)c(F)cc2c1=O [CIPROFLOXACIN] | 0.12 (≈ 0.362 µM) | 4 (≈ 12.1 µM) | 1 (≈ 3.02 µM) | 8 (≈ 24.1 µM) | 2 (≈ 6.04 µM) | 0.03 (≈ 0.0905 µM) | 0.25 (≈ 0.754 µM) | 0.25 (≈ 0.754 µM) | 0.01 (≈ 0.0302 µM) | 8 (≈ 24.1 µM) | 0.01 (≈ 0.0302 µM) | 0.01 (≈ 0.0302 µM) | 0.12 (≈ 0.362 µM) | 2 (≈ 6.04 µM) | 0.25 (≈ 0.754 µM) | 4 (≈ 12.1 µM) | 16 (≈ 48.3 µM) |
| C[C@H]1COc2c(N3CCN(C)CC3)c(F)cc3c(=O)c(C(=O)O)cn1c23.C[C@H]1COc2c(N3CCN(C)CC3)c(F)cc3c(=O)c(C(=O)O)cn1c23.O [LEVOFLOXACIN] | 0.25 | 4 | 0.5 | 4 | 2 | 0.03 | 0.25 | 0.5 | 0.03 | 8 | 0.03 | 0.03 | 0.12 | 0.5 | 0.25 | 2 | 4 |
| COc1c(N2C[C@@H]3CCCN[C@@H]3C2)c(F)cc2c(=O)c(C(=O)O)cn(C3CC3)c12 [MOXIFLOXACIN] | 0.25 (≈ 0.623 µM) | 2 (≈ 4.98 µM) | 0.5 (≈ 1.25 µM) | 2 (≈ 4.98 µM) | 4 (≈ 9.96 µM) | 0.06 (≈ 0.149 µM) | 0.25 (≈ 0.623 µM) | 0.5 (≈ 1.25 µM) | 0.03 (≈ 0.0747 µM) | 4 (≈ 9.96 µM) | 0.03 (≈ 0.0747 µM) | 0.03 (≈ 0.0747 µM) | 0.12 (≈ 0.299 µM) | 0.5 (≈ 1.25 µM) | 0.5 (≈ 1.25 µM) | 2 (≈ 4.98 µM) | 2 (≈ 4.98 µM) |
| CCn1cc(C(=O)O)c(=O)c2ccc(C)nc21 [NALIDIXIC ACID] | 32 (≈ 138 µM) | 128 (≈ 551 µM) | 64 (≈ 276 µM) | 128 (≈ 551 µM) | 128 (≈ 551 µM) | 0.5 (≈ 2.15 µM) | 64 (≈ 276 µM) | 64 (≈ 276 µM) | 0.5 (≈ 2.15 µM) | 128 (≈ 551 µM) | 0.5 (≈ 2.15 µM) | 0.5 (≈ 2.15 µM) | 16 (≈ 68.9 µM) | 64 (≈ 276 µM) | 1 (≈ 4.31 µM) | 64 (≈ 276 µM) | 128 (≈ 551 µM) |
